Assay results from patent US20210220328A1, “PYRROLE DERIVATIVES AS ACC INHIBITORS” (Almirall, S.A., priority 2017, published 2021).

Tested on: immortalized human sebocyte cell line, SZ95
Assay: In vitro assay of inhibition of lipid synthesis
Assay type: cell-based
Details: 48 h, SZ95 sebocytes
Description: In Vitro Assay of Inhibition of Lipid Synthesis
To evaluate the inhibition of lipid synthesis, the immortalized human sebocyte cell line, SZ95 (stablished by Zouboulis, C. C. et al J Invest Dermatol 1999; 113:1011-20), was treated with arachidonic acid (AA) in presence or absence of compound. Lipids were detected by using a lipid sensing fluorophore.
Compounds were dissolved in dimethylsulfoxide (DMSO) 100%. Then the stocks were serial diluted 1/3 in DMSO 100%, and this battery of solutions were diluted 1/10 in culture medium, to minimize the percentage of the DMSO over cells.
10 k cells were plated in 384 well microtiter plates and incubated at 37° C. and 5% CO2 in DMEM/F12 supplemented with 10% FBS, 1.25 ng/ml of rhEGF and GA-1000 before of compound and stimulus addition. After 24 h, compounds dissolved in culture media were added over cells, diluting the solutions prepared 1/40 in the final volume of the assay. Then, cells and compounds were preincubated for 30 min at 37° C. and 5% CO2. After this prior incubation, the lipid synthesis was induced by 75 μM of AA final solution, preparing a solution 10× in culture media. Finally, SZ95 treated were incubated for 48 h at 37° C. and 5% CO2.
Neutral lipids were measured using AdipoRed™, purchased from LONZA. To do that, cells were washed with PBS and incubated with a solution of AdipoRed™ (final dilution 1/80 in PBS) for 30 min at room temperature. After the staining process, the fluorescence intensity (FI) was quantified using a fluorescence plate reader (excitation 485 nm; emission 535).
Activity of compounds were calculated as % of inhibition considering the maximal fluorescence for AA-stimulated cells and the minimum fluorescence for unstimulated cells as controls.

[1] = lipid synthesis induced by 75 μM arachidonic acid, AdipoRed fluorescence, Table 1
[2] = 75 μM arachidonic acid, AdipoRed, Table 2, finer classes for compounds with IC50 less than 250 nM

Compound	IC50 [1] [nM]	IC50 [2] [nM]
CCCCCCCCCCCCOc1c[nH]c(C(=O)O)c1 [Example 1, 4-(Dodecyloxy)-1H-pyrrole-2-carboxylic acid]	250 to 1000	–
CCCCCCCCCCCCOc1c[nH]c(C(=O)OCC)c1 [Example 2, Ethyl 4-(dodecyloxy)-1H-pyrrole-2-carboxylate]	> 5000	–
CCCCCCCCCCCCOc1c[nH]c(C(=O)OCCN2C(=O)CCC2=O)c1 [Example 3, 2-(2,5-Dioxopyrrolidin-1-yl)ethyl 4-(dodecyloxy)-1H-pyrrole-2-carboxylate]	1000 to 5000	–
CCCCCCCCCCCCOc1c[nH]c(C(=O)OCCN2CCCC2=O)c1 [Example 4, 2-(2-Oxopyrrolidin-1-yl)ethyl 4-(dodecyloxy)-1H-pyrrole-2-carboxylate]	1000 to 5000	–
CCCCCCCCCCCCOc1c[nH]c(C(=O)OCC(F)(F)F)c1 [Example 5, 2,2,2-Trifluoroethyl 4-(dodecyloxy)-1H-pyrrole-2-carboxylate]	250 to 1000	–
CCCCCCCCCCCCOc1c[nH]c(C(=O)OCCO)c1 [Example 6, 2-Hydroxyethyl 4-(dodecyloxy)-1H-pyrrole-2-carboxylate]	1000 to 5000	–
CCCCCCCCCCCCOc1c[nH]c(C(=O)OCCOCCOCCOCCO)c1 [Example 7, 2-(2-(2-(2-Hydroxyethoxy)ethoxy)ethoxy)ethyl 4-(dodecyloxy)-1H-pyrrole-2-carboxylate]	> 5000	–
CCCCCCCCCCCCOc1c[nH]c(C(=O)OC(C)OC(=O)OC(C)C)c1 (stereo not drawn) [Example 8, 1-((Isopropoxycarbonyl)oxy)ethyl 4-(dodecyloxy)-1H-pyrrole-2-carboxylate]	< 250	100 to 250
CCCCCCCCCCCCOc1c[nH]c(C(=O)OCC(=O)N(C)CC(=O)OCC)c1 [Example 9, 2-((2-Ethoxy-2-oxoethyl)(methyl)amino)-2-oxoethyl 4-(dodecyloxy)-1H-pyrrole-2-carboxylate]	1000 to 5000	–
CCCCCCCCCCCCOc1c[nH]c(C(=O)OCCOC(=O)[C@@H](N)C(C)C)c1 [Example 10, 2-((L-valyl)oxy)ethyl 4-(dodecyloxy)-1H-pyrrole-2-carboxylate]	1000 to 5000	–
CCCCCCCCCCCCOc1c[nH]c(C(=O)OCc2oc(=O)oc2C)c1 [Example 11, (5-methyl-2-oxo-1,3-dioxol-4-yl)methyl 4-(dodecyloxy)-1H-pyrrole-2-carboxylate]	< 250	100 to 250
CCCCCCCCCCc1c[nH]c(C(=O)O)c1F [Example 12, 4-Decyl-3-fluoro-1H-pyrrole-2-carboxylic acid]	< 250	< 50
CCCCCCCCCCCc1c[nH]c(C(=O)O)c1F [Example 13, 3-Fluoro-4-undecyl-1H-pyrrole-2-carboxylic acid]	< 250	< 50
CCCCCCCCCCCCc1c[nH]c(C(=O)O)c1F [Example 14, 4-Dodecyl-3-fluoro-1H-pyrrole-2-carboxylic acid]	< 250	< 50
CCCCCCCCCCCCc1c[nH]c(C(=O)OCC(F)(F)F)c1F [Example 15, 2,2,2-Trifluoroethyl 4-dodecyl-3-fluoro-1H-pyrrole-2-carboxylate]	< 250	< 50
CCCCCCCCCCCCc1c[nH]c(C(=O)OCCOCCOCC)c1F [Example 16, 2-(2-Ethoxyethoxy)ethyl 4-dodecyl-3-fluoro-1H-pyrrole-2-carboxylate]	< 250	50 to 100
CCCCCCCCCCCCc1c[nH]c(C(=O)OC(C)OC(=O)OC(C)C)c1F (stereo not drawn) [Example 17, 1-((Isopropoxycarbonyl)oxy)ethyl 4-dodecyl-3-fluoro-1H-pyrrole-2-carboxylate]	< 250	< 50
CCCCCCCCCCCCc1c[nH]c(C(=O)OC(C)OC(=O)OCCOC)c1F (stereo not drawn) [Example 18, 1-(((2-Methoxyethoxy)carbonyl)oxy)ethyl 4-dodecyl-3-fluoro-1H-pyrrole-2-carboxylate]	< 250	100 to 250
CCCCCCCCCCCCc1c[nH]c(C(=O)OC(C)OC(=O)OCCOCCOCC)c1F (stereo not drawn) [Example 19, 4-Oxo-3,5,8,11-tetraoxatridecan-2-yl 4-dodecyl-3-fluoro-1H-pyrrole-2-carboxylate]	< 250	< 50
CCCCCCCCCCCCCc1c[nH]c(C(=O)OCC)c1F [Example 20, Ethyl 3-fluoro-4-tridecyl-1H-pyrrole-2-carboxylate]	1000 to 5000	–
CCCCCCCCCCCCCc1c[nH]c(C(=O)O)c1F [Example 21, 3-Fluoro-4-tridecyl-1H-pyrrole-2-carboxylic acid]	< 250	< 50

Compound	IC50 [1] [nM]	IC50 [2] [nM]
CCCCCCCCCCCCCc1c[nH]c(C(=O)OC)c1F [Example 22, Methyl 3-fluoro-4-tridecyl-1H-pyrrole-2-carboxylate]	1000 to 5000	–
CCCCCCCCCCCCCc1c[nH]c(C(=O)OC(C)C)c1F [Example 23, Isopropyl 3-fluoro-4-tridecyl-1H-pyrrole-2-carboxylate]	> 5000	–
CCCCCCCCCCCCCc1c[nH]c(C(=O)OC(C)(C)C)c1F [Example 24, Tert-butyl 3-fluoro-4-tridecyl-1H-pyrrole-2-carboxylate]	250 to 1000	–
CCCCCCCCCCCCCc1c[nH]c(C(=O)OC2CCCCC2)c1F [Example 25, Cyclohexyl 3-fluoro-4-tridecyl-1H-pyrrole-2-carboxylate]	1000 to 5000	–
CCCCCCCCCCCCCc1c[nH]c(C(=O)OCc2ccccc2)c1F [Example 26, Benzyl 3-fluoro-4-tridecyl-1H-pyrrole-2-carboxylate]	< 250	100 to 250
CCCCCCCCCCCCCc1c[nH]c(C(=O)OCC(F)(F)F)c1F [Example 27, 2,2,2-Trifluoroethyl 3-fluoro-4-tridecyl-1H-pyrrole-2-carboxylate]	< 250	< 50
CCCCCCCCCCCCCc1c[nH]c(C(=O)OCCN2C(=O)CCC2=O)c1F [Example 28, 2-(2,5-Dioxopyrrolidin-1-yl)ethyl 3-fluoro-4-tridecyl-1H-pyrrole-2-carboxylate]	< 250	50 to 100
CCCCCCCCCCCCCc1c[nH]c(C(=O)OCCN2CCCC2=O)c1F [Example 29, 2-(2-Oxopyrrolidin-1-yl)ethyl 3-fluoro-4-tridecyl-1H-pyrrole-2-carboxylate]	< 250	100 to 250
CCCCCCCCCCCCCc1c[nH]c(C(=O)OCc2oc(=O)oc2C)c1F [Example 30, (5-Methyl-2-oxo-1,3-dioxol-4-yl)methyl 3-fluoro-4-tridecyl-1H-pyrrole-2-carboxylate]	< 250	< 50
CCCCCCCCCCCCCc1c[nH]c(C(=O)OCC(=O)N(C)CC(=O)OCC)c1F [Example 31, 2-((2-Ethoxy-2-oxoethyl)(methyl)amino)-2-oxoethyl 3-fluoro-4-tridecyl-1H-pyrrole-2-carboxylate]	< 250	< 50
CCCCCCCCCCCCCc1c[nH]c(C(=O)OCCO)c1F [Example 32, 2-Hydroxyethyl 3-fluoro-4-tridecyl-1H-pyrrole-2-carboxylate]	250 to 1000	–
CCCCCCCCCCCCCc1c[nH]c(C(=O)OCCCO)c1F [Example 33, 3-Hydroxypropyl 3-fluoro-4-tridecyl-1H-pyrrole-2-carboxylate]	< 250	50 to 100
CCCCCCCCCCCCCc1c[nH]c(C(=O)OCCCCO)c1F [Example 34, 4-Hydroxybutyl 3-fluoro-4-tridecyl-1H-pyrrole-2-carboxylate]	< 250	100 to 250
CCCCCCCCCCCCCc1c[nH]c(C(=O)OCCCCCO)c1F [Example 35, 5-Hydroxypentyl 3-fluoro-4-tridecyl-1H-pyrrole-2-carboxylate]	< 250	100 to 250
CCCCCCCCCCCCCc1c[nH]c(C(=O)OCCCCCCO)c1F [Example 36, 6-Hydroxyhexyl 3-fluoro-4-tridecyl-1H-pyrrole-2-carboxylate]	< 250	100 to 250
CCCCCCCCCCCCCc1c[nH]c(C(=O)OCCCCCCCO)c1F [Example 37, 7-Hydroxyheptyl 3-fluoro-4-tridecyl-1H-pyrrole-2-carboxylate]	< 250	100 to 250
CCCCCCCCCCCCCc1c[nH]c(C(=O)OCCCCCCCCO)c1F [Example 38, 8-Hydroxyoctyl 3-fluoro-4-tridecyl-1H-pyrrole-2-carboxylate]	250 to 1000	–
CCCCCCCCCCCCCc1c[nH]c(C(=O)OCCCCCCCCCO)c1F [Example 39, 9-Hydroxynonyl 3-fluoro-4-tridecyl-1H-pyrrole-2-carboxylate]	< 250	< 50
CCCCCCCCCCCCCc1c[nH]c(C(=O)OCC(O)CO)c1F (stereo not drawn) [Example 40, 2,3-Dihydroxypropyl 3-fluoro-4-tridecyl-1H-pyrrole-2-carboxylate]	< 250	< 50
CCCCCCCCCCCCCc1c[nH]c(C(=O)OC(CO)CO)c1F [Example 41, 1,3-Dihydroxypropan-2-yl 3-fluoro-4-tridecyl-1H-pyrrole-2-carboxylate]	< 250	< 50
